Laboratory results reported in article PMC3479139, “Diverse Small Molecule Inhibitors of Human Apurinic/Apyrimidinic Endonuclease APE1 Identified from a Screen of a Large Public Collection” (PLoS ONE, 2012).

What was measured:
[1] = target: T1, APE1 (Homo sapiens, UniProt P27695); assay: Fluorogenic kinetic qHTS APE1 incision assay (primary screen and retest of cherrypicked samples); type: biochemical;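 note: purified APE1 cleaving a fluorophore/dark-quencher labelled 17-mer duplex DNA bearing a tetrahydrofuran AP site, fluorescence rise followed kinetically over the first 2 min, inhibition normalized to controls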
T1 construct: made in house
T1 sequence (P27695 whole entry): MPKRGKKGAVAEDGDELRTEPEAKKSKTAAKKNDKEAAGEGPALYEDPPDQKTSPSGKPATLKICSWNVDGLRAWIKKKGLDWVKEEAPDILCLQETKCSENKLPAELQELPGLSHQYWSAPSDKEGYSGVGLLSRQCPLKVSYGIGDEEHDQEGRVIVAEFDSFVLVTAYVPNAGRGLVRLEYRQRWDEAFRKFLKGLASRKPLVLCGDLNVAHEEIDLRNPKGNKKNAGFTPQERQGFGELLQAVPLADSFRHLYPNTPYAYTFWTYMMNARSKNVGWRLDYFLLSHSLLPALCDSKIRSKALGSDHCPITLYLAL

[2] = target: T1, APE1; assay: Gel-based radiotracer (32P) APE1 incision assay; type: biochemical; parameters: concentration or dose not given beside the values; conditions: percent incision shown; entries 1-112;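 note: APE1 incision reactions ran 5 min at 37 °C, with cleaved product and intact substrate resolved electrophoretically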
[3] = target: T1, APE1; assay: Fluorescence polarization (FP) displacement assay of APE1 binding to AP-DNA probe; conditions: read-out: FP IC50;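 note: TAMRA 5′-labeled duplex DNA with THF abasic site (5 nM) and APE1 (20 nM), Mg2+-free buffer, 15 min at room temperature, inhibition seen as lowered polarization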
Description: Double-stranded oligodeoxynucleotide containing tetrahydrofuran (THF) abasic site labeled with TAMRA at the 5′-end was used as the labeled binding probe. Inhibition of APE1 binding to labeled probe was detected by a decrease in the fluorescence polarization (FP) of the fluorophore. Briefly, 4 µL mixture of 20 nM APE1 and 5 nM probe contained in the enzymatic assay buffer from which Mg^2+ was omitted, was dispensed into 1536-well Greiner black solid bottom plates. Compounds (23 nL) were transferred via pintool, and after a 15-minute incubation at room temperature, fluorescence polarization was measured in a ViewLux High-throughput CCD imager (480 nm excitation and 540 nm emission) to determine the degree of probe displacement caused by the test compounds.

[4] = target: double-stranded 17-mer DNA fragment; assay: ThO (Thiazole Orange) DNA displacement assay; type: binding; conditions: for IC50: read-out: ThO-DNA binding IC50;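 for all read-outs here: miniaturized displacement of the intercalating dye from unlabeled duplex DNA, used to flag nonspecific DNA binders, chiefly intercalators, groove binders may be missed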
[5] = target: T2, E. coli Endo IV (Escherichia coli, UniProt P0A6C1); assay: E. coli Endo IV profiling counterscreen; type: biochemical; conditions: read-out: EndoIV IC50;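 note: selectivity counterscreen of candidate APE1 inhibitors against the bacterial endonuclease Endo IV, run in the same assay format as the primary APE1 high-throughput screen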
T2 construct: made in house
Excerpt: In order to screen out nonselective compounds, such as non-specific DNA binders and inhibitors of related enzymes, we used a miniaturized ThO DNA displacement assay and a counterscreen against the bacterial endonuclease E. coli Endo IV, respectively, following the previously published protocols [21].
To probe the selectivity of the candidate APE1 inhibitors, we tested them against E. coli EndoIV [36], employing the same assay as used in the HTS.

[6] = initial quantitative high-throughput screen, read-out: APE1 qHTS IC50
[7] = retest of cherrypicked sample, read-out: APE1 Retest IC50

Structure (SMILES)	IC50 [1, 6]	IC50 [1, 7]	Radiotracer Assay (%Activity) [2]	IC50 [3]	IC50 [4]	IC50 [5]	ThO assay signal behaviour (autofluorescence interference) [4]	IC50 ([1]; control on every assay plate, average over screen, read-out: IC50 of intra-plate control titration)
O=C(/C=C/c1ccc(O)c(O)c1)O[C@H](Cc1ccc(O)c(O)c1)C(=O)O [MLS000697677]	0.1 µM	0.6 µM	38%	> 57 µM	> 57 µM	> 57 µM		
Cc1c2c(c(O)c3c(O)cccc13)C(=O)O[C@H]2C1C(N(C)C)C(O)=C(C(N)=O)C(=O)[C@H]1O (some centres unmarked) [NCGC00163605]	2 µM	1.6 µM	2.7%	2.2 µM		> 57 µM	strong dose-dependent fluorescence signal increase	
O=C1C=CC2=C3c4cc(O)c(O)cc4CC3(O)COC2=C1O (centres unmarked) [NCGC00095664]	0.1 µM	0.1 µM	4.1%	15.8 µM	11.2 µM	> 57 µM		
O=C(O)Cc1ccc(S(=O)(=O)N2CCCC2)s1 [MLS002245326]					> 57 µM	> 57 µM		
Cc1ccc(C)c(OCCn2ccnc2)c1 [MLS000974607]					> 57 µM	> 57 µM		
O=C(COC(=O)C1CC(=O)N(Cc2ccco2)C1)c1ccc(OC(=O)c2ccccc2)cc1 (centres unmarked) [MLS000548444]			35%		> 57 µM	10 µM		
NS(=O)(=O)c1ccc(CCNC(=O)c2ccc3nccnc3c2)cc1 [MLS002252586]					> 57 µM	> 57 µM		
CN(C)C(=O)Nc1ccc(Cl)c(Cl)c1 [NCGC00094525]	20 µM	44.7 µM	36.6%	> 57 µM	> 57 µM	> 57 µM		
CC(=O)N[C@H]1C(O[C@@H]2O[C@H](C[C@@H](O)[C@H]3O[C@@H](N4CCC(=O)NC4=O)[C@H](O)[C@@H]3O)[C@H](O)[C@H](O)[C@H]2NC(=O)/C=C/CCCCCCCCCCC(C)C)OC(CO)[C@@H](O)[C@@H]1O (some centres unmarked) [NCGC00161652]	7.9 µM	2.5 µM	26.5%	31.6 µM	> 57 µM	> 57 µM		
O=C(COC(=O)c1cc2c(s1)CCC2)Nc1ccc(F)cc1 [MLS000334872]		10 µM	39%	12.6 µM	> 57 µM	> 57 µM		
O=C(COC(=O)/C=C/c1ccco1)NCc1ccco1 [MLS001004396]					> 57 µM	> 57 µM		
COC(=O)c1c(C)[nH]c(C(=O)COc2ccc3ccc(=O)oc3c2)c1C [MLS002156353]						> 57 µM		
O=C(O)c1ccc(N2C(=O)c3cccc4c(C(=O)O)ccc(c34)C2=O)cc1 [MLS000713642]	12.6 µM	7.9 µM	28%	15.8 µM	> 57 µM	> 57 µM		
O=C(N/N=C/c1cccn1-c1cccc(C(=O)O)c1)Nc1ccccc1 [MLS000588622]	5 µM	3.5 µM	32%	> 57 µM	> 57 µM	> 57 µM		
O=[N+]([O-])c1ccc(Cl)c(-c2ccc(/C=N/n3cnnc3)o2)c1 [MLS001194618]					> 57 µM	> 57 µM		
CC(C)OCCOc1ccc2oc(-c3ccco3)cc(=O)c2c1 [MLS001163009]					> 57 µM	> 57 µM		
CCn1c(SCC(=O)O)nc2sc3c(c2c1=O)CCC3 [MLS000069140]	22.4 µM	12.6 µM	22.3%	> 57 µM	> 57 µM	> 57 µM		
O=C(O)CCCN1C(=O)/C(=C/C=C/c2ccco2)SC1=S [MLS000778631]	35.5 µM	5 µM	41%	> 57 µM	> 57 µM	> 57 µM		
CC(=O)c1ccc(NC(=O)c2ccc3nc(-c4ccco4)c(-c4ccco4)nc3c2)cc1 [MLS000534769]	19.9 µM	4 µM	11%	> 57 µM	8.9 µM	10 µM		
O=C1CCCC(O)=C1N=Nc1ccc(C(=O)O)cc1 [MLS000759943]	8.9 µM	10 µM	47%	> 57 µM	> 57 µM	> 57 µM		
O=c1c(O)c(Br)ccc2c(Br)c(O)c(O)c(O)c12 [NCGC00160279]	1.1 µM	0.4 µM	37.9%	> 57 µM	1.26 µM	> 57 µM		
Cc1cccc(C)c1NC(=O)CSc1nnc(-c2ccco2)c(-c2ccco2)n1 [MLS000556463]	15.6 µM	3.6 µM	43%	> 57 µM	> 57 µM	> 57 µM		
COc1cc(O)c2c(c1)oc(=O)c1c3cc(O)c(O)cc3oc21 [NCGC00163667]	10 µM	4.4 µM	8.4%	> 57 µM	10 µM	> 57 µM		
CNS(=O)(=O)c1cccc(C(=O)OCC(=O)c2ccc[nH]2)c1 [MLS002163823]					> 57 µM	> 57 µM		
CC(=O)OCC1=C(C(=O)[O-])N2C(=O)C(NC(=O)CCCC(N)C(=O)O)C2SC1.[Na+] (centres unmarked) [NCGC00094863]	22.4 µM		41%	> 57 µM	> 57 µM	> 57 µM		

Structure (SMILES)	IC50 [1, 6]	IC50 [1, 7]	Radiotracer Assay (%Activity) [2]	IC50 [3]	IC50 [4]	IC50 [5]	ThO assay signal behaviour (autofluorescence interference) [4]	IC50 ([1]; control on every assay plate, average over screen, read-out: IC50 of intra-plate control titration)
O=C(/C=C/c1ccco1)NCc1ccco1 [MLS000768482]	22.4 µM	4.5 µM	21%	> 57 µM	> 57 µM	> 57 µM		
CC(=O)NC1=NC(=O)/C(=C/c2cc(C)n(-c3cccc(C(=O)O)c3)c2C)S1 [MLS000673948]	3.5 µM	4.4 µM	30%	> 57 µM	> 57 µM	> 57 µM		
COc1ccccc1NC(=O)COC(=O)c1cc2c(s1)CCC2 [MLS002161511]					> 57 µM	18.2 µM		
O=c1/c(=C/c2ccco2)sc2nc(-c3ccccc3Br)nn12 [MLS000039532]	22.4 µM	7.9 µM	9%	> 57 µM	> 57 µM	> 57 µM		
O=C(NN1C(=O)/C(=C/C=C/c2ccco2)SC1=S)c1ccncc1 [MLS000762704]	4.5 µM	4.5 µM	36%	> 57 µM	> 57 µM	> 57 µM		
O=C1CCCC(O)=C1N=Nc1cccc(C(=O)O)c1 [MLS000759952]	10 µM	12.6 µM	10%	> 57 µM	> 57 µM	> 57 µM		
COc1ccc(N2CCN(C(=O)Cc3ccc(S(=O)(=O)N4CCOCC4)s3)CC2)cc1 [MLS000760918]	14.1 µM		45%	> 57 µM	> 57 µM	> 57 µM		
CN(CC(=O)Nc1cccc(F)c1)C(=O)c1cc(-c2ccco2)nc2ccccc12 [MLS001156482]					40.8 µM	> 57 µM		
O=C(O)C1C2C=CC(C2)C1C(=O)Nc1ccccc1Br (centres unmarked) [MLS001008562]					> 57 µM	> 57 µM		
O=C(CCC(=O)c1ccc(Oc2ccccc2)cc1)Nc1ccc(C(=O)O)cc1 [MLS001001328]					> 57 µM	> 57 µM		
COc1cc(/C=C(\C#N)C(=O)Nc2cccc(C(=O)O)c2)ccc1OCc1ccc(Cl)cc1 [MLS001172702]					> 57 µM	> 57 µM		
O=C(/C=C/c1ccco1)OCC(=O)N1CCCCC1 [MLS002246602]					> 57 µM	> 57 µM		
Cc1c(NS(=O)(=O)c2cc(C(=O)NCCN(C)C)ccc2Cl)c(=O)n(-c2ccccc2)n1C [MLS001175210]					> 57 µM	> 57 µM		
O=C(COc1ccccc1[N+](=O)[O-])Nc1cccc(S(=O)(=O)NC2=NCCCCC2)c1 [MLS001078387]					> 57 µM	> 57 µM		
N[C@H](Cc1ccc(O)c(O)c1)C(=O)O [NCGC00093869]	1 µM	3.5 µM	11.3%		> 57 µM	> 57 µM		
Cn1c(SCC(=O)Nc2nncs2)nnc1C1CC1 [MLS001060429]					> 57 µM	> 57 µM		
C=CCn1c(SCC(=O)Nc2sc3c(c2C#N)CCC(C)C3)nc2cc(C(=O)O)ccc2c1=O (centres unmarked) [MLS002251505]					> 57 µM	> 57 µM		
CC1(C)C(=O)CC[C@]2(C)C3C(=O)C=C4[C@H]5C[C@@](C)(C(=O)O)CC[C@]5(C)CC[C@]4(C)[C@]3(C)CC[C@@H]12 (some centres unmarked) [MLS000697684]					> 57 µM	> 57 µM		
COc1ccc(S(=O)(=O)N2CCN(C(=O)C3COc4ccccc4O3)CC2)cc1 (centres unmarked) [MLS002159357]					> 57 µM	> 57 µM		
COc1ccc(CNC(=O)COC(=O)c2ccc(S(=O)(=O)NCc3ccco3)cc2)cc1 [MLS002252767]					> 57 µM	> 57 µM		
Cc1ccc2c(=O)cc(C(=O)NCCc3ccc(S(N)(=O)=O)cc3)oc2c1 [MLS001216111]					36.3 µM	> 57 µM		
O=C(COC(=O)/C=C/c1ccco1)NCc1ccc2c(c1)OCO2 [MLS001006993]					> 57 µM	> 57 µM		
O=C(Cc1ccc(S(=O)(=O)N2CCOCC2)s1)Nc1nc2c(s1)CCCC2 [MLS000567201]					15.8 µM	> 57 µM		
O=C(O)c1cc[c]([Sb](=[O])([OH])[OH])cc1[N+](=O)[O-] [NSC-13755, reference compound]								0.035 µM
